Literature values as cited in patent US8784850B2, “Highly biocompatible dual thermogelling chitosan/glucosamine salt composition” (Oligo Médic Inc., priority 2010, dated 2014).

Experiments:
[1] = tested on: rats; settings: rat, in vivo, po
[2] = tested on: rabbits; settings: ingestion of 300 to 2149 mg/kg of body weight
[3] = tested on: mice; settings: mouse, in vivo, po
[4] = tested on: human blood glucose metabolism; settings: human studies
[5] = tested on: rats; settings: ingestion of 300 to 2149 mg/kg of body weight
[6] = tested on: dogs; settings: ingestion of 300 to 2149 mg/kg of body weight
[7] = tested on: rabbits; settings: rabbit, in vivo, po
[8] = tested on: outpatients with gonarthrosis
[9] = tested on: patients with osteoarthritis pain; settings: oral administration, more than 3000 patients
[10] = intra-articular, after treatment
[11] = intra-articular, versus placebo

Q: For `N[C@H]1C(O)O[C@H](CO)[C@@H](O)[C@@H]1O` (stereo partly drawn) [glucosamine], which LD50 [1] is on record?
A: exceed 5000 mg/kg

Q: What about the blood glucose levels [2] of the same compound?
A: no effect on blood glucose levels

Q: And the LD50 [3]?
A: > 8000 mg/kg

Q: What about the “plasma levels of glucose or insulin, insulin sensitivity or glucose oxidation” value [4] of the same compound?
A: did not affect

Q: And the blood glucose levels [5]?
A: no effect on blood glucose levels

Q: And the blood glucose levels [6]?
A: no effect on blood glucose levels

Q: And the LD50 [7]?
A: > 8000 mg/kg

Q: What about the “local or general intolerance symptoms” value ([8]; during and after treatment) of the same compound?
A: no local or general intolerance symptoms

Q: What about the “angle of joint flexion” value [8, 10] of the same compound?
A: substantially increased

Q: And the knee swelling [8, 10]?
A: did not decrease significantly

Q: What about the active mobility [8, 11] of the same compound?
A: a more favourable trend after glucosamine administration

Q: And the pain-free patients [8, 11]?
A: significantly more pain-free patients

Q: What about the pain ([8]; one intra-articular injection per week for five weeks, versus placebo) of the same compound?
A: reduced pain to a significantly greater extent than did placebo

Q: What about the “adverse effects on blood, urine or fecal parameters” value [9] of the same compound?
A: no adverse effects

Q: And the “effectiveness in treating osteoarthritis pain” value [9]?
A: moderately to highly effective
